Assay: Human HepG2 cell viability assay in 384 well format
Type: toxicity, cell-based
Design: dose 125 nL, time 70.5 hour; cytotoxicity at 70.5 h: concentration not given beside the values
Details: HepG2 cells, read-out: Inhibition

| Compound | cytotoxicity at 70.5 h [%] |
| --- | --- |
| O=C(N[C@@H]1CN(Cc2ccc3[nH]ccc3c2)C[C@H]1O)c1cscn1 | 19.9 |
| O=C1CO[C@H]2CN(C3CCOCC3)C[C@H]2N1Cc1ccc(F)cc1 | 16.1 |
| CC(C)CN1C[C@H]2CCN(Cc3cccnc3)CC[C@H]2S1(=O)=O | -10.9 |
| COc1cccc(C(=O)N2CCN(C(=O)CCCn3ccnc3)CC2)c1 | 26.1 |
| CCCNC(=O)c1c(-n2cnnn2)sc2c1CCC2 | -10.4 |
| COc1c(CNC(c2ccccc2)c2ccc(F)cc2)c(C)nn1C (stereo unspecified) | 24 |
| Cc1ccc(-c2nc(CN3CCOC(Cn4cccn4)C3)co2)cc1 (stereo unspecified) | -5.71 |
| CC(=O)NS(=O)(=O)c1ccc(F)cc1C(F)(F)F | 33.1 |
| Cc1cnn(CC2CN(Cc3csc(C4CCCC4)n3)CCO2)c1 (stereo unspecified) | -0.185 |
| COc1ccccc1OCC(=O)NS(=O)(=O)c1ccc(C)s1 | -4.78 |
| COC(=O)CN1CCSC(c2ccccc2)C1 (stereo unspecified) | -13.2 |
| CCn1ncc(S(=O)(=O)N[C@@H]2CC[C@@H](n3ccnc3C)[C@@H]2O)c1C | -5.15 |
| O=C(C1CCN(c2ncnc3cccc(F)c23)CC1)N1CCCC1 | 8.28 |
| O=C(NCC1CC1)c1n[nH]c2c1CNCC2 | -10.7 |
| CN1CCN(c2ccc(NCc3ccsc3)cn2)CC1 | -8.79 |
| N#CCCCS(=O)(=O)N1CCCC1CC(=O)c1cccs1 (stereo unspecified) | -6.62 |
| CN(C)CCNc1cc(-c2ccccc2C(N)=O)c2cc[nH]c2n1 | -8.6 |
| Cc1cccc(NC(=O)NCC2(N3CCOCC3)CCSC2)c1 (stereo unspecified) | 3.35 |
| COc1ccc(N2CCC(N3CCOC(C(F)(F)F)C3)CC2)cc1 (stereo unspecified) | -7.02 |
| CN(CCCO)C(=O)c1cc(COc2ccc3c(c2)CCCC3)on1 | -7.55 |
| COc1ccc(CN2CCN(S(=O)(=O)c3cc(C(=O)O)cs3)CC2)cc1 | -18.9 |
| Cc1nc(CN2CCC(CNC(=O)C3(C#N)CCCC3)CC2)oc1C | -5.03 |
| O=C(NCC1CCOCC1)[C@@H]1C[C@@H]2[C@@H](CCN2Cc2nccs2)O1 | -12.1 |

| Compound | cytotoxicity at 70.5 h [%] |
| --- | --- |
| CC(C)C(Nc1nc(C(F)(F)F)nc2ccccc12)C(=O)O (stereo unspecified) | -1.94 |
| COCc1cnc2n1CCN(S(=O)(=O)c1c(C)nn(C)c1C)C2C (stereo unspecified) | 29 |
| Cc1nc(-c2nnc[nH]2)sc1C(=O)N1CCCC1c1ccsc1 (stereo unspecified) | -5.22 |
| COCC(C)NC(=O)CSc1ccc(F)c(Cl)c1 (stereo unspecified) | 12 |
| c1cc(-c2c[nH]nc2C2CCCCC2)nc(N2CCCCCC2)n1 | 2.67 |
| CCC(CO)N(C/C(C)=C/c1ccco1)Cc1ccccn1 (stereo unspecified) | -6 |
| CC(C)Cc1ncc2c(n1)CN(C(=O)c1ccc(Cn3ccnc3)o1)C2 | -17.7 |
| Cc1nn(C)c(C)c1C1CCCN1C(=O)c1cc(C(N)=O)cs1 (stereo unspecified) | -6.04 |
| Cc1n[nH]c(C)c1NC(=O)CN1CCc2c(nc(C3CC3)n2C)C1 | 17.7 |
| O=C(NCc1cccnc1)C1=NN(c2ccccc2)C(=O)CN1 | -13.9 |
| O=C(C[C@@H]1COC[C@H]2CN(C(=O)c3ccccn3)C[C@@H]12)N1CCCC1 | 1.42 |
| COc1ccc(C(=O)Nc2n[nH]c(C3CCCO3)n2)cc1 (stereo unspecified) | 26.5 |
| COc1ccnc(N2CCN(C(=O)Cc3csc(C)n3)CC2)n1 | 1.2 |
| Cc1nc2c(c(NCCc3nc4c(s3)CCCC4)n1)CCNCC2 | -9.11 |
| CC(C)NC(=O)Nc1ccc2c(c1)ncn2CC(=O)NCCN(C)C | -12.7 |
| COc1ccc(-c2noc([C@@H](C)NS(=O)(=O)CC(C)C)c2C(=O)O)cc1 | -10.7 |
| c1cncc(-c2noc(CNc3ncnc4c3CCNCC4)n2)c1 | -5.95 |
| CC(=O)Nc1ncc(S(=O)(=O)Nc2ccc3c(c2)OCCO3)s1 | -7.83 |
| Cc1cc(NC(=O)NCc2ccc(C)s2)no1 | -8.73 |
| COc1c(Br)c(C(=O)NC2CCCC2)nn1C | -9.06 |
| CN1CC2(COCCN(C(=O)c3ccco3)C2)OCC1=O (stereo unspecified) | 6.17 |
| CN1CCCC1c1cccc(Cc2ccc(F)cc2)n1 (stereo unspecified) | 17 |
| Cc1n[nH]c(C)c1CNC(=O)c1cn(CCC2CCCCN2)nn1 (stereo unspecified) | -1.34 |

| Compound | cytotoxicity at 70.5 h [%] |
| --- | --- |
| COc1ccc(C(=O)NCC(c2cccn2C)N2CCCC2)cc1OC (stereo unspecified) | -4.98 |
| CC(C)c1cc(C(=O)N2CC[C@@H](c3ccc4c(c3)OCO4)[C@H](O)C2)[nH]n1 | 3.33 |
| Cc1nc(C(C)(C)C)sc1C(=O)NCCn1cccn1 | -0.966 |
| COC(=O)C1=C(C)N=C2SCC(=O)N2C1c1cnn(C)c1C (stereo unspecified) | -1.28 |
| CCOCC1CN(C(=O)c2cscn2)Cc2nnn(CC3CC3)c21 (stereo unspecified) | -6.01 |
| O=C(N[C@@H]1CCNC[C@H]1O)c1cc(F)cc(Cl)c1 | -1.46 |
| Cc1cc(O)c(OCC(=O)Nc2nc3c(s2)CCCC3)cn1 | -22.4 |
| O=C(Cc1noc(C(=O)NCC2CC2)n1)Nc1cccc(C(F)(F)F)c1 | -7.55 |
| CCn1nc(C)cc1NC(=O)CCn1nc(C)c(Br)c1C | 10.2 |
| Cc1noc(C)c1CNC(=O)N1CCN(Cc2cscn2)CC1 | -5.24 |
| O=C(N1CCCC1)N1CCO[C@H]2[C@@H](OCc3cccnc3)CC[C@@H]21 | -8.11 |
| CN1CCC(NC(=O)Nc2ccc(Br)c(F)c2)C1=O (stereo unspecified) | 1.65 |
| COc1ccc(F)cc1C(=O)Nc1nnc(C)s1 | 6.71 |
| Cc1cc(N2CCC(N(C)C(=O)c3ccccc3F)CC2)nc(C)n1 | 15.8 |
| Cc1csc(C2CCCCN2C(=O)c2cc(C3CC3)[nH]n2)n1 (stereo unspecified) | -2.5 |
| Cc1nnc2n1CCN(Cc1csc(-c3ccsc3)n1)C2 | -5.37 |
| CC(C)CN(C)Cc1c[nH]nc1-c1ccc(F)cc1F | -15 |
| CCOC(=O)[C@@H]1[C@@H](c2ccccc2)CN2CCN(S(C)(=O)=O)C[C@H]12 | -6.56 |
| CN(C)C(=O)CN1CCCC1c1nccnc1Nc1ccccn1 (stereo unspecified) | -8.51 |
| CC(C)N1CCCC1c1cc(CO)[nH]n1 (stereo unspecified) | -4.38 |
| COc1ccc(S(=O)(=O)N2C[C@H](OC)[C@]3(CCCO3)C2)cc1 | -16.2 |
| CCn1nccc1CNC(=O)Cn1cc2c(n1)c(C)nn2C(C)C | -9.07 |
| OC1(CNCc2ccc(F)c(C(F)(F)F)c2)CCOC1 (stereo unspecified) | -2.64 |

| Compound | cytotoxicity at 70.5 h [%] |
| --- | --- |
| CN(C)C(=O)N[C@@H]1CN(C2CCOCC2)[C@@H]2CCCO[C@@H]21 | -2.52 |
| CN1C(=O)CC(C(=O)O)C12CCN(c1ccc3ccccc3n1)CC2 (stereo unspecified) | -4.07 |
| Cc1cc(C2CCCN2C(=O)NCc2cccnc2OC(C)C)on1 (stereo unspecified) | -9.53 |
| O=C(C1CCCO1)N1CCC2(CC1)COCCN(Cc1cccnc1)C2 (stereo unspecified) | -2.16 |
| CC(=O)c1cccc(NC(=O)CN2CCCCC2C2OCCO2)c1 (stereo unspecified) | -1.12 |
| Cc1nc(CN2CCO[C@H]3[C@@H](OCc4ccccn4)CC[C@@H]32)cs1 | -23.4 |
| CCCN(CCC)c1nc(N)nc(-c2cc(Cl)ccc2OC)n1 | -2.85 |
| O=C(CSCCN1CCOCC1)N1CCc2ccccc2C1 | 17.6 |
| CNc1nc(CN2C[C@@H](NC(C)=O)[C@H](c3ccc(C)o3)C2)cs1 | -16.5 |
| COc1cccc(N2CCN(C(=O)COc3c(C)occc3=O)CC2)c1 | 10 |
| Cc1nn(C)c(N(C)C)c1CNCc1ccc2c(c1)OCO2 | 29.5 |
| CO[C@H]1CCN(S(=O)(=O)c2cccnc2)[C@@H]2CN(CC3CC3)C[C@H]12 | -6.81 |
| O=C(CSC1=NS(=O)(=O)c2cc(Cl)ccc2N1)c1ccccc1 | 23.9 |
| CN(CCCC1CCCC1)C(=O)c1cc(CN2CCC(O)CC2)on1 | 10.4 |
| CCc1nc(CN2CCCN(Cc3noc(C4CC4)n3)CC2)cs1 | -0.776 |
| COC(=O)CCCn1ccnc1-c1ccc(OC)c(F)c1F | 3.06 |
| CC(NC1CCN(C(=O)C2CCCCC2)CC1)c1nccs1 (stereo unspecified) | -6.15 |
| Cc1noc(C)c1NC(=O)NC1CCN(C(=O)OC(C)(C)C)CC1 | -9.26 |
| CN(C)c1cccc(C(=O)NCC2(O)CCOCC2)c1 | -0.873 |
| CS(=O)(=O)N1C[C@@H]2CC[C@H](C1)N(C(=O)CCc1ccsc1)C2 | -2.59 |
| COCCN1CCC(CN(CC2CCCO2)C(=O)CCNC(C)=O)CC1 (stereo unspecified) | -3.63 |
| CNC(=O)[C@H]1C[C@H]2OCC[C@H]2N(Cc2ccc(F)cc2)C1 | -4.52 |
| Cc1cc(C(N)=O)ccc1NC(=O)N1CCN(c2cccs2)CC1 | -12.4 |

| Compound | cytotoxicity at 70.5 h [%] |
| --- | --- |
| CS(=O)(=O)CCS(=O)(=O)Cc1cc(Cl)c2c(c1)OCCCO2 | -5.05 |
| O=C(NCCCn1nc2ccccn2c1=O)NC(C1CC1)C1CC1 | -16.5 |
| COCCN1CCC2(CC1)CC(NC(=O)C1CC1)c1ccccc1O2 (stereo unspecified) | -5.15 |
| CCC(=O)N1C[C@@H]2CCN(c3cnccn3)C[C@@H]2C1 | 35.4 |
| CN(CC(C)(C)O)C1CCCN(Cc2noc(C3CC3)n2)C1 (stereo unspecified) | 41.7 |
| N#Cc1cnn(C(=O)CCCOc2ccccc2Cl)c1N | 9.75 |
| CN(C)c1ncc(-c2ccc(NC(=O)[C@@H]3CCCCN3)cc2)cn1 | -0.758 |
| O=C1NCCN(C(=O)c2cn3ccsc3n2)C1Cc1ccccc1 (stereo unspecified) | -5.01 |
| CCn1cc(Cl)c(C(=O)NCc2cnn(C)c2)n1 | -0.0278 |
| CC1(C)OCC2(CO1)CN(S(=O)(=O)c1ccc(Br)s1)C2 | 4.85 |
| Cc1cnc(N2CCOC3(CCCN(CC(=O)N(C)C)C3)C2)nc1 (stereo unspecified) | -3.5 |
| Cn1ncnc1CNC(=O)N(CCCO)C1CCc2ccccc21 (stereo unspecified) | -6.34 |
| COc1ncccc1N(C)C(=O)Cn1cc(-c2ccccc2)nn1 | -4.75 |
| O=C(COc1cccc2c1CCC2=O)NCCOc1ccccc1 | 15.4 |
| Cc1ccc([C@H]2CN(CCO)C[C@@H]2NC(=O)CN2CCCCC2=O)o1 | -11 |
| Cc1ccccc1CSc1nc(N)cc(N2CCC(CC(N)=O)CC2)n1 | -3.38 |
| OC(COCc1ccccc1)CSc1nnc2ccccn12 (stereo unspecified) | -5.06 |
| CN(Cc1cccs1)c1nc2c(cnn2C(C)(C)C)c(=O)[nH]1 | -6.5 |
| N#Cc1ccc(NC2CCN(c3ncccn3)CC2)cc1Cl | 7.18 |
